Test results published in article PMC4076210, “Discovery of Novel AKT Inhibitors with Enhanced Anti-Tumor Effects in Combination with the MEK Inhibitor” (PLoS ONE, 2014).

What was measured:
[1] = set-up: method as in PMID 18381444; settings: mice; cited from earlier work
CAPAN-2 tumor xenografts = experiment: Xenograft tumor growth inhibition, combination with MEK inhibitor; format: in vivo, mouse; settings: 0.3 mg/kg, day 69
Experimental: (§1) Tumors were initiated by injecting either cells (SKOV3, CAPAN-2 and HPAC) or a tumor fragments (BT474) subcutaneously into 6–8 week female athymic nude (SKOV3) and SCID (all others) mice. Once tumors reached between 120 and 300 mm^3, mice were randomized according to tumor volume into groups of n = 7–10 mice per treatment. GSK2110183 and GSK2141795 were administered daily at various doses by oral gavage. In combination experiments, GSK1120212 was also administered daily by oral gavage. Tumor volumes and body weight were measured twice weekly, tumor volume was measured with calipers and calculated using equation: […]. Results are represented as percent inhibition on completion of dosing = 100 x [1- average growth of drug-treated population/average growth of vehicle-treated control population].

HPAC tumor xenografts = experiment: as above; format: in vivo, mouse; settings: 0.3 mg/kg daily, day 42
Experimental: as §1

| SMILES | hyperglycemia (blood glucose) [1] | TGI (CAPAN-2 tumor xenografts) | TGI (HPAC tumor xenografts) |
| --- | --- | --- | --- |
| CCn1c(-c2nonc2N)nc2c(C#CC(C)(C)O)ncc(OC[C@H]3CCCNC3)c21 [GSK690693] | ~500 mg/dL | – | – |
| CC(=O)Nc1cccc(-n2c(=O)n(C3CC3)c(=O)c3c(Nc4ccc(I)cc4F)n(C)c(=O)c(C)c32)c1 [GSK1120212, trametinib, reference compound] | – | 90% | 65% |
